Data from patent US20240148678A1, “SUSTAINED RELEASE INJECTABLE THERAPEUTIC FORMULATIONS USING APROTIC POLAR SOLVENTS” (Xeris Pharmaceuticals, Inc., priority 2022, published 2024).
Several values for one entry are separate records, joined by “and”; a condition that tells them apart may be missing. Equal values may be shown once.

How the values were obtained:
[1] = cited from earlier work
[2] = Storage stability of levothyroxine in DMSO formulations; type: physicochemical; conditions: 5 mg/mL in DMSO without ionization stabilizing excipient; even in refrigeration
Description: These formulation studies are described in detail in U.S. Appl. No. 63/380,090, entitled “Stable Levothyroxine Formulations in Aprotic Polar Solvents,” filed on even day herewith, which is incorporated herein by reference in its entirety. […] The overall moisture content of the formulation was ˜5% when prepared using 1.0 N H2SO4. The moisture content of this formulation was due almost entirely to the added sulfuric acid (with a minor contribution from the trehalose dihydrate), which at 26 mM (from a 1.0 N (0.5 M) stock solution) results in a moisture content ˜5% (w/w). When prepared using concentrated acid (e.g., 10 N), the overall moisture content of the formulation could be reduced to about ˜1% without any significant impact on storage stability. Other exemplary formulations were prepared at a concentration of 5 mg/mL levothyroxine in DMSO that had been first acidified with about 13-15 mM sulfuric acid. These formulations were then used in levothyroxine pharmacokinetic pre-clinical studies using laboratory animals.

CCOc1ccccc1OCCN[C@H](C)Cc1ccc(OC)c(S(N)(=O)=O)c1 [Tamsulosin, tamsulosin]
solubility in DMSO ([1]; DMSO): 100 mM and > 40 mg/ml | solubility in aqueous/physiological environments ([1]; aqueous/physiological): ~10 mM and 4 mg/ml

N[C@@H](Cc1cc(I)c(Oc2cc(I)c(O)c(I)c2)c(I)c1)C(=O)O [levothyroxine]
stability when solubilized directly in DMSO [2]: discolor and form degradation products within one day of storage
